Tested on: DEN-1 virus strain FGA/NA d1d
Type: cell-based
Conditions: THP/DC-SIGN cells, m.o.i. 5 AP61FFU/cell
Description: Prior to infection, THP-1/DC/SIGN cells were incubated with either Mab 9D12 (dilution 1:50), Mab BD12.5 (20 μg/ml), Mab 1B10.2.6 (20 μg/ml), EDTA (5 mM), mannan (20 μg/ml), or mock-treated (control). Treated cells were infected with DEN-1 virus strain FGA/NA dld (5 AP61FFU/cell) in the presence of reagents for 2 hrs. Viral antigens were detected by indirect immunofluorescence as described in the legend of FIG. 1. The percentages of infected cells 48 h post-infection are indicated. Values represent the mean of triplicate assays±SD.
Cells were washed once with RPMI 1640, incubated with highly purified virus in RPMI 1640 supplemented with 0.2% bovine serum albumine (BSA, pH 7.5) (Sigma) for 2 hrs at 37° C. and placed into fresh media supplemented with 2% FCS, 2 mM L-glutamine and antibiotics Peni/Strepto at 37° C. for 40 hrs.
Adherent cells were incubated either with EDTA (5 mM), mannan (20 μg/ml), anti-DC-SIGN Mab 1B10.2.6 (20 μg/mi), anti-LMCV Mab 12.5 (isotype control, 20 μg/ml), or DEN E-specific Mab 9D12 (dilution 1:50) in RPMI 1640 supplemented with 0.2% BSA for 20 min at room temperature before binding the virus for 2 hrs. Two hours after infection, cells were washed with RPMI 1640 and incubated with RMPI 1640 2% FCS for 40 hrs. […]

Molecule	infectivity of DEN-1 virus after preincubation of cells (EDTA 5 mM)	reduction of FGA/NA d1d infectivity (mannan 20 μg/ml)
O=C(O)CN(CCN(CC(=O)O)CC(=O)O)CC(=O)O [EDTA]	essentially abolished	–
mannan	–	75%
